According to article PMC4168161, “A novel approach for the discovery of chemically diverse anti-malarial compounds targeting the Plasmodium falciparum Coenzyme A synthesis pathway” (Malaria Journal, 2014):
pIC50: −log10 of the molar value.

Experiments:
HEK293 cells [1] = test: HEK293 viability assay (resazurin); assay type: cell-based, human; details: HEK293, 72 hr, top concentration 40 μM, n = 3
Method: (§1) To assess cytotoxicity of compounds in dose response, a resazurin-based assay was utilized to determine cell viability. In brief, HEK293 cells were grown in DMEM medium (Life Technologies) containing 10% foetal calf serum (FCS; Gibco). Cells were trypsinized, counted and seeded at 2,000 cells per well in 45 μl media into TC-treated 384-well plates (Falcon) and left to adhere overnight at 37°C, 5% CO2 and 95% humidity.
(§2) Test compounds were prepared as described above, to give a top final test concentration of 40 μM, 0.4% DMSO. Plates were incubated for 72 hr at 37°C, 5% CO2 and 95% humidity, then the media was removed and replaced by 35 μl of 44 μM resazurin in DMEM without FCS. The plates were incubated for another 4-6 hr at 37°C, 5% CO2 and 95% humidity before reading on an EnVision® Plate Reader (PerkinElmer) using fluorescence excitation/emission settings of 530 nm/595 nm. Determination of the% growth compared to controls (40 μM puromycin as positive and 0.4% DMSO as negative control) was performed in Microsoft® Excel 2010. Statistical analysis including IC50 determination and graphical output was performed in GraphPad Prism® 5 using nonlinear regression variable slope curve fitting.

[2] = test system: Plasmodium falciparum strain 3D7; test: Plasmodium falciparum growth inhibition imaging assay; assay type: cell-based; details: for SI (selectivity index): HEK293 IC50 value divided by P. falciparum IC50 value; for pIC50: P. falciparum 3D7, 72 hr, n = 3
Method: In vitro parasite culture was maintained in RPMI with 10 mM Hepes (Life Technologies), 50 μg/ml hypoxanthine (Sigma) and 5 mg/ml AlbuMAX II® (Life Technologies). Human O + erythrocytes were obtained from the Australian Red Cross Blood Service (Agreement No: 13-04QLD-09). The parasites were maintained at 2-8% parasitaemia (% P) at 5% haematocrit (% H), incubated at 37°C, 5% CO2, 5%O2 and 90% N2 and 95% humidity. The well-established P. falciparum imaging assay was modified to allow assessment of chemical rescue with CoA. In brief, sorbitol (5% w/v) synchronization was performed twice, approximately 8 hr apart, on each synchronization day for two consecutive ring cycles, i.e., on day 1 and 3 of assay preparation. On day 2 the culture was split to approximately 2% trophozoite parasitaemia. On day 4 the culture was split to 1-1.5% trophozoite parasitaemia, which yielded approximately 8% ring parasitaemia after 48 hr (on day 5, i.e., the day of the assay set-up). Compound stocks (10 mM in 100% DMSO) were diluted 1:25 in sterile water, less than 24 hr prior to use. An additional 1:10 dilution was performed, resulting in a 1:250 overall compound dilution and a final DMSO concentration of 0.4%. For initial screening, compounds were tested at a final 2 μM concentration. For dose response curves of the active compounds, a semi-logarithmic serial dilution (containing three data points per log) was prepared at 40 μM top concentration for test compounds and 2 μM for the positive control, artemisinin. The known P. falciparum CoA synthesis inhibitor, panthenol, was prepared as a 100 mM solution in 4% DMSO. The final concentration of the dose response curve of panthenol started at 10 mM and was serially diluted down to 100 nM. CoA was dissolved in water. The final CoA concentration for optimal rescue results was determined for each CoA batch and ranged between 0.8-2 mM. Five μl of the 1:25 diluted test compound or control solutions were added to 384-well CellCarrier imaging plates (PerkinElmer). For the chemical rescue, 5 μl of CoA solution were added to ‘rescue’ wells and 5 μl water to all control and reference wells, respectively. Parasite culture was added to a final concentration of 1% parasitaemia (% P) and 0.3% haematocrit (% H). Plates were incubated for 72 hr at 37°C, 5% CO2 and 95% humidity. On day 8 the permeabilization and nuclear staining buffer was prepared in PBS containing 10 μg/ml saponin, 0.01% triton X, 5 mM EDTA (all: Sigma) and 0.5 μg/ml 4′,6-diamidino-2-phenylindole (DAPI; Life Technologies). The plates were left for at least 4 hr (typically overnight), before confocal imaging on an Opera™ High Content Screening Platform (PerkinElmer) at 405 nm excitation with a 20x water objective. Automated primary image analysis was performed concurrent with the imaging process, utilizing an Acapella® software (PerkinElmer) script to determine the number of parasites based on object size and fluorescence intensity. Determination of the % growth compared to controls (2 μM artemisinin as positive and 0.4% DMSO as negative control) was performed in Microsoft® Excel 2010. Statistical analysis including IC50 determination and graphical output was performed in GraphPad Prism® 5 using non-linear regression variable slope curve fitting.

HEK293 cells [3] = test: CoA chemical rescue on HEK293 cells; assay type: cell-based, human; details: dose response with and without CoA, n = 2
Method: as §1
as §2, with “Plates” for “Test compounds were prepared as described above, to give a top final test concentration of 40 μM, 0.4% DMSO. Plates”

| Compound | pIC50 (HEK293 cells [1]) | SI (selectivity index) [2] | pIC50 [2] | SI (selectivity index) ([2]; listed as MMV000304) | cytotoxic effect on HEK293 cells upon CoA addition (HEK293 cells [3]) |
| --- | --- | --- | --- | --- | --- |
| Cc1csc(Sc2ncnc3sccc23)n1 [Amb180780] | ~4.40 | ~ 333 | 6.92 |  |  |
| CC(=O)c1ccc2c3c(onc13)-c1ccccc1C2=O [Amb3377585] | 5.56 | 18 | 6.82 |  |  |
| COc1ccc2c(=O)cc(C(Cl)(Cl)Cl)oc2c1 [MMV665820/5534045] | 5.44 | 6.2 | 6.24 |  |  |
| CCOc1ccc(Nc2c3ccccc3nc3ccccc23)cc1.Cl [MMV000304/Amb636705] | 6.00 | 0.8 | 5.92 | no parasite specificity | reduced upon CoA addition |
| CC(C)=NOC(=O)c1c(C)noc1-c1snnc1C [SPB03400] | < 4.40 |  | 6.35 |  |  |
| CCc1ccc(Nc2cc(C)c3ccc(O)cc3n2)cc1.Cl [MMV000570/C614-0191] | ~4.40 | ~ 54 | 6.13 |  |  |
| CC1=CC(=O)C(C(C)C)=C/C1=N/OS(=O)(=O)c1ccccc1 [STK 740987] | < 4.40 | > 105 | 6.42 |  |  |
